Assay [1] relates to human aortic valve interstitial cells (AVICs). Put plainly: Osteogenic assay: calcification of human AVICs in osteogenic media (Alizarin Red). In kind it is cell-based. The note with it: for calcification of AVICs: STAT5 inhibitor 10 μM added every two days during osteogenic (OST) treatment, after 21 days of treatment (FIG. 6D). The protocol:
Human cell isolation. Patient-specific lines were established by using the same valves for histopathology, RNA, and cell isolation. Primary aortic valve interstitial cells (AVICs) were obtained from the patient aortic valve. Briefly, leaflets were washed with PBS containing 10 mg/ml gentamicin (GIBCO) and 250 μg/ml fungizone (GIBCO) and dissociated with 0.1% collagenase II at 37 C and 5% of CO2 for 18 hours. Then, the tissue was further dissociated by gently mixing it by pipetting with a serological pipette to ensure the release of A VICs and then passed through a […] filter to remove debris. Cells were pelleted and then resuspended in Dulbecco's Modified Eagle's Medium (DMEM) supplemented with 10% fetal bovine serum (FBS) and 1×penicillin-streptomycin (P/S). Human coronary artery smooth muscle cells (CASMC) were obtained from patient coronary. Briefly, vessels were washed with PBS containing 10 mg/ml gentamicin (GIBCO) and 250 μg/ml fungizone (GIBCO). Vessels were cut open to expose the lumen and intima and adventitia were gently scrapped. Vessels were then sectioned and dissociated with 0.1% collagenase II for 3 hrs. Cells were pelleted and then seed and expanded.
(§1) Cell Culture. AVICs lines were expanded in Dulbecco's Modified Eagle's Medium supplemented with 10% fetal bovine serum and 1×penicillin-streptomycin. Cells were used between passages 4 and 15. Growth media was changed every three days, and cells were split 1:2 when confluent. CASMC lines were expanded in smooth muscle media SMGM (CC-3181) supplemented with BULLETKIT (CC-4149). Human MSCs (PT-2501, Lonza) were expanded on Minimum Essential Medium alpha without nucleosides and supplemented with 10% fetal bovine serum and 1×penicillin-streptomycin and used between passages 4 and 10. Cells are routinely tested for mycoplasma contamination.
(§2) Osteogenic Assay. […]
(§3) Alizarin Red Staining and Quantification. […] Absorbance was at 405 nm using a 96-well plate spectrophotometer.

Another assay concerns hCASMC. The assay is described as follows: Osteogenic assay: calcification of human coronary artery smooth muscle cells. In kind it is cell-based. The note with it: inhibitor 10 μM, osteogenic media, 21 days (FIG. 16D, FIG. 6E). The protocol: Scalebar 100 μm (middle panel). Quantification of PLA signal is shown on the right graphs. n=4. […] Diagram depicting STAT5 and TERT binding RUNX2 promoter and the positions of the predicted STAT5 binding sites (bottom panel). […] Scalebar 400 μm n=8; means±SD. Quantification of calcification is shown on the right graph. Data is represented as means±SD. P were calculated by Kruskal-Wallis H test with Dunn pairwise comparison post hoc test. Scalebar 400 um. […] When the cells reached confluence, media was replaced with osteogenic media (Minimum Essential Medium alpha with nucleosides, 10% FBS, 1×P/S, 10 mM glycerol phosphate, 50 μM ascorbic acid 2-phosphate, and 100 nM dexamethasone) for 21 days. No treatment media consisted of Minimum Essential Medium alpha with nucleosides, 10% FBS, 1×P/S. Media was replaced every four days.
Quantification of protein levels. n=4 control, n=4 CAVD; means±SD; two-way ANOVA. […] Scalebar 100 um. Quantification of PLA is shown on the right graph. n=4. […] P were calculated by Kruskal-Wallis H test with Dunn pairwise comparison post hoc test. Scalebar 400 um. […] Scalebar 50 um.
Human cell isolation. Patient-specific lines were established by using the same valves for histopathology, RNA, and cell isolation. Primary aortic valve interstitial cells (AVICs) were obtained from the patient aortic valve. […]
Alizarin Red Staining and Quantification. […]

For another assay, the system named is hMSCs. Put plainly: Osteogenic assay: calcification of human mesenchymal stem cells. In kind it is cell-based. The note with it: inhibitor 10 μM, osteogenic media, 21 days (FIG. 17). The procedure:
When cells reached confluence, media was replaced with osteogenic media (Minimum Essential Medium alpha with nucleosides, 10% FBS 1×P/S, 10 mM glycerol phosphate, 50 uM ascorbic acid 2-phosphate, and 100 nM dexamethasone) for 21 days. No treatment media consisted of Minimum Essential Medium alpha with nucleosides, 10% FBS, 1×P/S. Media was replaced every four days. […] P were calculated by Kruskal-Wallis H test with Dunn pairwise comparison post hoc test. Scalebar 400 μm.
as §1, §2, §3

The next assay has as its target T1, STAT5A (Homo sapiens, UniProt P42229).
T1 sequence (P42229 1-794): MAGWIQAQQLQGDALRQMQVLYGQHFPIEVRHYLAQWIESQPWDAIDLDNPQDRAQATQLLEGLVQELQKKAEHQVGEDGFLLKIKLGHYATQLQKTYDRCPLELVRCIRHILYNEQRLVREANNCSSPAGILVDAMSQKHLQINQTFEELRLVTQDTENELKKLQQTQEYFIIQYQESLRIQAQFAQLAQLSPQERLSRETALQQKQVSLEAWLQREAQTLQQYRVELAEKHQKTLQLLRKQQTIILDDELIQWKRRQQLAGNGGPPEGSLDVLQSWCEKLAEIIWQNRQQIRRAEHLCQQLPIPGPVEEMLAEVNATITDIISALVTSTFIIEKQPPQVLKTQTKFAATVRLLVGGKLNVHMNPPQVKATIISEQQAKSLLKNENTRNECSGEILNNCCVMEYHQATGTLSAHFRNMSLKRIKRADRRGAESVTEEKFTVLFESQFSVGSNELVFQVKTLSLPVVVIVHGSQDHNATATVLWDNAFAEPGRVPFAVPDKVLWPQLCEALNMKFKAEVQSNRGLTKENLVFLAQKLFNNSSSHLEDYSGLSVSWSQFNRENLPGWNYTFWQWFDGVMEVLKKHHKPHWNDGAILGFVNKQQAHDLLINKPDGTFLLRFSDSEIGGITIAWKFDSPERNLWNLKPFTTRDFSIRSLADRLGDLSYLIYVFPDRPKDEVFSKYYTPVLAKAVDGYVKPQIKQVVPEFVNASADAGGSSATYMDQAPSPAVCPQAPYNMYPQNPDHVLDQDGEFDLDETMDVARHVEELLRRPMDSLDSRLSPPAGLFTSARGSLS
The note with it: as reported; cited from earlier work.

In the case of `C/C(=C\C(=O)Nc1ccccc1C(=O)O)c1ccc2ccccc2c1` [BIBR1532], in assay [1] (BIBR1532 at 1, 10, or 100 nM added every two days during OST treatment, 28 days (FIG. 13C)), the “ability of AVICs to calcify” value was “did not alter the ability of AVICs to calcify”.

Turning to `COc1cc(-c2cc(OP(=O)(O)O)cc(-c3cc(OC)c(OC)c(OC)c3)c2)cc(OC)c1OC` [StafiA-1], the “calcification of AVICs” value in assay [1] is reported as “significantly inhibited calcification”. Also, the “calcification in hCASMC” value with hCASMC is given as “significantly reduced the calcification”. The “calcification in hMSCs” value in the assay on hMSCs was “significantly reduced the calcification”. The “specific inhibition of STAT5A isoform” value on STAT5A is “specifically inhibit”.

`O=C(COc1ccc2cc(C(=O)Nc3ccccc3)ccc2c1)NCc1ccc(OP(=O)(O)O)c(OP(=O)(O)O)c1` [StafiB-1]: in assay [1], the “calcification of AVICs” value is “this inhibition was of a greater extent than the inhibition observed when AVICs were treated with StafiB-1”. The “calcification in hCASMC” value in the assay on hCASMC was “did not”.

Source of the values: US20260256761A1, “COMPOSITIONS AND METHODS FOR THE IDENTIFICATION OF INHIBITORS OF AND TREATMENT FOR ECTOPIC CALCIFICATION” (UNIVERSITY OF PITTSBURGH-OF THE COMMONWEALTH SYSTEM OF …, priority 2022, published 2026).
